Laboratory results: US4039669A, “Composition for topical application and use thereof” (Sterling Drug Inc., priority 1975, dated 1977)

How the values were obtained:
steroid 5α-reductase [1] = details: cited from earlier work; for Anti-androgenic activity by inhibitory effects on steroid 5α-reductase activity: laboratory animals
[2] = in vivo; cited from earlier work
[3] = system: testosterone-stimulated flank organs; assay: Effect on testosterone-stimulated flank organs in the castrated hamster (topical); type: in vivo; details: for Flank Organ Cholest., Mean ± S.E. / Flank Organ Diameter, Mean ± S.E. / Flank Organ Wet Wgt, Mean ± S.E. / Flank Organ Develop. (Med. Score): topical; for Flank Organ Cholest., Mean ± S.E. / Flank Organ Diameter, Mean ± S.E. / Flank Organ Wet Wgt, Mean ± S.E.: 14 times over 2 weeks; for Inhibition of testosterone-stimulated increase in the cholesterol contact of the flank organs (in words) / Reduction of testosterone-stimulated increase in flank organ diameter (in words) / Suppression of flank organ development, degree of pigmentation (in words) / Wet weight of the flank organs (in words): topical with 1 μg TP; for Flank Organ Develop. (Med. Score): degree of pigmentation, score 0 to 4, 2 weeks
Procedure: (§1) The effect of 17α-(n-propyl)androst-4-en-17β -ol-3-one and 17α-(n-butyl)androst-4-en-17β -ol-3-one on testosterone-stimulated flank organs and on endocrine organs in the castrated hamster was determined as follows:
(§2) Castrated hamsters were treated on both flank organs topically with testosterone propionate (TP) equivalent to 1 microgram of testosterone with or without the test agents dissolved in 5 microliters of absolute ethanol 14 times over a 2 weeks period. The hamsters were 4-5 weeks of age (55 to 75 grams body weight) and were caged individually. After the end of the two-weeks period, the development (degree of pigmentation) and diameter of the flank organs were assessed and measured, and the flank organs were punched out with an 8 mm cork borer for determination of wet weight and cholesterol content. Endocrine organ weights (adrenal gland, seminal vesicle and thymus gland) were also determined.
In the first table TP refers to testosterone propionate, Compd. I refers to 17α-(n-propyl)androst-4-en-17β -ol-3-one, Compd. II refers to 17α-(n-butyl)androst-4-en-17β -ol-3-one, and n refers to the number of animals in each group.

[4] = Progestational activity (Clauberg assay); type: in vivo
Procedure: When 17α-(n-propyl)androst-4-en-17β -ol-3-one was administered intramuscularly, its progestational activity was about one-fortieth that of progesterone.

[5] = system: flank organ sebaceous glands; assay: Daily topical application to normal, sexually mature male hamsters; type: in vivo, hamster; details: 200 μg daily, 6 weeks
steroid 5α-reductase [6] = assay: Inhibition of conversion of testosterone to dihydrotestosterone, minced hamster flank organ, tritiated testosterone; type: biochemical
Procedure: The effectiveness of 17α-(n-propyl)androst-4-en-17β -ol-3-one in inhibiting the conversion of testosterone dihydrotestosterone by the enzyme steroid 5α-reductase was measured using minced hamster flank organ as a source of the enzyme and tritiated testosterone as a substrate. At concentrations of one-hundredth molar and one-thousandth molar, 17α-(n-propyl)androst-4-en-17β -ol-3-one was 100% and 53% inhibitory, respectively.

[7] = Subcutaneous and oral toxicity (LD50) in the rat; details: in vivo
Description: (§3) 17α-(n-Propyl)androst-4-en-17β -ol-3-one is conveniently prepared by a three-step synthesis from 3β -acetoxyandrost-5-en-17-one in an over-all yield of 43%. The first step is a Grignard reaction with allylmagnesium bromide to give 17α-allylandrost-5-ene-3β,17β-diol in 81% yield. The second step is a hydrogenation over 10% palladium-on-carbon catalyst to afford 17α-propylandrost-5-ene-3β, 17β-diol in 88% yield. The third step is an Oppenauer oxidation with aluminum isopropoxide to give the desired 17α-(n-propyl)androst-4-en-17β -ol-3-one in 60.5% yields.

[8] = system: endocrine organs (adrenal gland, seminal vesicle and thymus gland); assay: Endocrine organ weights in the castrated hamster after topical treatment; type: in vivo; details: for Endocr. Organ Wgts, Mean ± S.E.: Adrenal Gland / Endocr. Organ Wgts, Mean ± S.E.: Seminal Vesicle / Endocr. Organ Wgts, Mean ± S.E.: Thymus Gland: topical, 2 weeks; for Weights of the endocrine organs (in words): topical application, castrated hamsters
Procedure: as §1, §2

[9] = Standard test procedures for androgenic, estrogenic or anabolic properties; type: in vivo
[10] = Serum testosterone levels after topical application to sexually mature hamsters; type: in vivo, hamster; details: 200 μg per flank organ topically, 3 weeks
Procedure: When 17α-(n-propyl)androst-4-en-17β -ol-3-one was topically applied to sexually mature hamsters at 200 μg per flank organ for a period of 3 weeks, serum testosterone levels were unchanged compared with untreated controls.

[11] = Subcutaneous and oral toxicity (LD50) in the mouse; details: in vivo
Description: as §3

acne or sebum secretion = details: tried topically; cited from earlier work
[12] = 200 μg topically with 1 μg testosterone propionate, castrated hamsters
[13] = oral, read-out: Oral toxicity (LD50)
[14] = sc, subcutaneous, read-out: Subcutaneous toxicity (LD50)
[15] = Group III: 1 μg TP + 100 μg test compound
[16] = Groups IV, V: 1 μg TP + 200 μg test compound
[17] = castrated hamsters, 1 μg TP + 100 μg test compound
[18] = castrated hamsters, 1 μg TP + 200 μg test compound
[19] = castrated hamsters, 1 μg TP alone

In the case of `C[C@]12CC[C@H]3[C@@H](CCC4=CC(=O)CC[C@@]43C)[C@@H]1CC[C@@H]2C(=O)O` [3-oxoandrost-4-ene-17β-carboxylic acid], the “Block of the action of dihydrotestosterone on flank organ responses” value (steroid 5α-reductase [1]; castrated hamsters) is given as “did not, however, block” and the “Anti-androgenic activity by inhibitory effects on steroid 5α-reductase activity” value (steroid 5α-reductase [1]) is given as “exhibit anti-androgenic activity”.

For `CC[C@]1(O)CC[C@H]2[C@@H]3CCC4=CC(=O)CC[C@]4(C)[C@H]3CC[C@@]21C` [17α-ethylandrost-4-en-17β-ol-3-one], the Systemic androgenic activity [2] is listed as “have systemic androgenic activity”.

With `CCC[C@]1(OC=O)CC[C@H]2[C@@H]3CCC4=CC(=O)CC[C@]4(C)[C@H]3CC[C@@]21C` [17β-Formyloxy-17α-(n-propyl)androst-4-en-3-one] the “Activity relative to the parent alcohol, by cholesterol content” value [3, 12] was “about 40%”, the “Flank organ development (in words)” value [3, 12] was “no effect” and the “Flank organ size (in words)” value [3, 12] was “slightly reduced flank organ size”. For the same compound, the “Reduction of flank organ cholesterol content” value [3, 12] was 32% and the “Reduction of flank organ wet weight” value [3, 12] was “about 13%”.

With `CCC[C@]1(O)CC[C@H]2[C@@H]3CCC4=CC(=O)CC[C@]4(C)[C@H]3CC[C@@]21C` [Compd. I, 17α-(n-propyl)androst-4-en-17β -ol-3-one] the “Progestational activity, Clauberg assay” value ([4]; 32 mg/kg applied topically) was “minimal progestational activity”, the “Progestational activity relative to that of progesterone” value ([4]; administered intramuscularly) was “about one-fortieth” and the Flank organ development [5] was “caused a regression in flank organ development”. The Seminal vesicle weights [5] was “not reduced”, the “Size and lipid content of the sebaceous glands” value [5] was “significantly reduced” and the “Inhibition of conversion of testosterone to dihydrotestosterone by steroid 5α-reductase” value (steroid 5α-reductase [6]; concentration one-hundredth molar) was 100%. The “Inhibition of conversion of testosterone to dihydrotestosterone by steroid 5α-reductase” value (steroid 5α-reductase [6]; concentration one-thousandth molar) was 53%, the LD50 [7, 13] was over 5000 mg/kg and the LD50 [7, 14] was over 1000 mg/kg. The “Endocr. Organ Wgts, Mean ± S.E.: Adrenal Gland” value [8, 15] was 12.1±0.32 Mg, the “Endocr. Organ Wgts, Mean ± S.E.: Seminal Vesicle” value [8, 15] was 39.5±2.9 Mg and the “Endocr. Organ Wgts, Mean ± S.E.: Thymus Gland” value [8, 15] was 58.3±6.7 Mg. The “Endocr. Organ Wgts, Mean ± S.E.: Adrenal Gland” value [8, 16] was 11.6±0.48 Mg, the “Endocr. Organ Wgts, Mean ± S.E.: Seminal Vesicle” value [8, 16] was 34.0±2.6 Mg and the “Endocr. Organ Wgts, Mean ± S.E.: Thymus Gland” value [8, 16] was 43.5±4.9 Mg. For the same compound, the “Weights of the endocrine organs (in words)” value [8] was “not significantly altered”, the “Androgenic, estrogenic or anabolic properties” value [9] was “devoid of any significant androgenic, estrogenic or anabolic properties” and the “Serum testosterone levels compared with untreated controls” value [10] was “unchanged”. For the same compound, the “Flank Organ Cholest., Mean ± S.E.” value [3, 17] was 162 ± 5.8 µg, the “Flank Organ Diameter, Mean ± S.E.” value [3, 17] was 3.71±0.22 mm and the “Flank Organ Wet Wgt, Mean ± S.E.” value [3, 17] was 28.5 ± 1.0 mg. The “Flank Organ Cholest., Mean ± S.E.” value [3, 18] was 163 ± 9.4 µg, the “Flank Organ Diameter, Mean ± S.E.” value [3, 18] was 3.91±0.14 mm and the “Flank Organ Wet Wgt, Mean ± S.E.” value [3, 18] was 27.5 ± 1.3 mg. For the same compound, the “Inhibition of testosterone-stimulated increase in the cholesterol contact of the flank organs (in words)” value ([3]; castrated hamsters) was “effective as inhibitors”, the “Reduction of testosterone-stimulated increase in flank organ diameter (in words)” value ([3]; castrated hamsters) was “effective” and the “Suppression of flank organ development, degree of pigmentation (in words)” value ([3]; castrated hamsters) was “effective in suppressing flank organ development”. The “Wet weight of the flank organs (in words)” value ([3]; castrated hamsters) was “reduced the wet weight of the flank organs below that recorded for the vehicle control”, the “Flank Organ Develop. (Med. Score)” value ([3]; 1 μg TP + 100 μg test compound) was 3.5 and the “Flank Organ Develop. (Med. Score)” value ([3]; 1 μg TP + 200 μg test compound) was 3.0. The “Flank Organ Develop. (Med. Score)” value ([3]; 1 μg TP + 200 μg test compound, listed as Compound I) was 3, the LD50 [11, 13] was over 5000 mg/kg and the LD50 [11, 14] was over 1000 mg/kg.

With `CCCC[C@]1(O)CC[C@H]2[C@@H]3CCC4=CC(=O)CC[C@]4(C)[C@H]3CC[C@@]21C` [Compd. II, 17α-(n-butyl)androst-4-en-17β -ol-3-one] the “Endocr. Organ Wgts, Mean ± S.E.: Adrenal Gland” value [8, 16] was 12.4±0.53 Mg, the “Endocr. Organ Wgts, Mean ± S.E.: Seminal Vesicle” value [8, 16] was 34.0±4.1 Mg and the “Endocr. Organ Wgts, Mean ± S.E.: Thymus Gland” value [8, 16] was 60.7±7.6 Mg. The “Weights of the endocrine organs (in words)” value [8] was “not significantly altered”, the “Flank Organ Cholest., Mean ± S.E.” value [3, 18] was 151 ± 8.9 µg and the “Flank Organ Diameter, Mean ± S.E.” value [3, 18] was 3.24±0.13 mm. The “Flank Organ Wet Wgt, Mean ± S.E.” value [3, 18] was 21.6 ± 1.2 mg, the “Inhibition of testosterone-stimulated increase in the cholesterol contact of the flank organs (in words)” value ([3]; castrated hamsters) was “effective as inhibitors” and the “Reduction of testosterone-stimulated increase in flank organ diameter (in words)” value ([3]; castrated hamsters) was “effective”. The “Suppression of flank organ development, degree of pigmentation (in words)” value ([3]; castrated hamsters) was “effective in suppressing flank organ development”, the “Wet weight of the flank organs (in words)” value ([3]; castrated hamsters) was “reduced the wet weight of the flank organs below that recorded for the vehicle control” and the “Flank Organ Develop. (Med. Score)” value ([3]; 1 μg TP + 200 μg test compound) was 1.0. The “Flank Organ Develop. (Med. Score)” value ([3]; 1 μg TP + 200 μg test compound, listed as Compound II) was 1.

For `C[C@]12CCC(=O)C=C1CC[C@@H]1[C@@H]2CC[C@@]2(C)[C@H]1CC[C@]2(C)O` [Methyltestosterone], the Systemic androgenic activity [2] is given as “have systemic androgenic activity”.

With `CCC(=O)O[C@H]1CC[C@H]2[C@@H]3CCC4=CC(=O)CC[C@]4(C)[C@H]3CC[C@]12C` [TP, testosterone propionate, reference compound] the “Endocr. Organ Wgts, Mean ± S.E.: Adrenal Gland” value ([8]; Group II: 1 μg TP alone) was 11.8±0.81 Mg, the “Endocr. Organ Wgts, Mean ± S.E.: Seminal Vesicle” value ([8]; Group II: 1 μg TP alone) was 35.0±2.9 Mg and the “Endocr. Organ Wgts, Mean ± S.E.: Thymus Gland” value ([8]; Group II: 1 μg TP alone) was 55.2±6.5 Mg. The “Flank Organ Cholest., Mean ± S.E.” value [3, 19] was 238 ± 26 µg, the “Flank Organ Diameter, Mean ± S.E.” value [3, 19] was 4.30±0.15 mm and the “Flank Organ Wet Wgt, Mean ± S.E.” value [3, 19] was 42.0 ± 1.2 mg. The “Flank Organ Develop. (Med. Score)” value ([3]; 1 μg TP alone) was 4.0.

In the case of `CC(=O)O[C@]1(C(C)=O)CC[C@H]2[C@@H]3C=C(Cl)C4=CC(=O)[C@@H]5C[C@@H]5[C@]4(C)[C@H]3CC[C@@]21C` [cyproterone acetate, 6-chloro-1α , 2α-methylene-4,6-pregnadien-17α-o1-3,20-dione acetate], the “Effectiveness against acne or sebum secretion” value (acne or sebum secretion) is listed as “not to be effective”.

For `COC(=O)[C@H]1CC[C@H]2[C@@H]3CCC4=CC(=O)CC[C@]4(C)[C@H]3CC[C@]12C` [methyl ester thereof], the “Anti-androgenic activity by inhibitory effects on steroid 5α-reductase activity” value (steroid 5α-reductase [1]) is given as “exhibit anti-androgenic activity”.

For `CC(=O)[C@H]1CC[C@H]2[C@@H]3CCC4=CC(=O)CC[C@]4(C)[C@H]3CC[C@]12C` [progesterone, reference compound], the “Progestational activity, Clauberg assay” value ([4]; 2 mg/kg applied topically) was “maximal response”.
